Test results reported in patent publication US6572788B2, “Amine oxide wood preservatives” (Lonza, Inc., priority 2000, dated 2003).
In brackets after ≈: the same amount, converted by molar mass. Several values for one entry are separate records, joined by “and”; a condition that tells them apart may be missing. Identical values can stand only once. Like-named read-outs stand apart in the source and are kept apart here. Each block holds one compound with its values, some of them ahead of it.

Legend:
[1] = test system: stains, molds, and fungi; assay: Wood preserving efficacy on freshly cut green chestnut oak (dip treatment); set-up: scale not given here
[2] = test system: stains, molds, and fungi; assay: Wood preserving efficacy on freshly cut white birch wood (dip treatment, sealed bag); set-up: key: 4 - Clean with no visible stain or mold; 3 - Trace amount of white/black fungal growth; 2 - Black and/or white fungal growth visible on all faces and ends; 1 - Heavy fungal growth
Experimental: The wood preserving efficacy of each aqueous test solution in Table 1 below was tested on freshly cut white birch wood as follows. All percentages in Table 1 are by weight. A branch of white birch tree measuring about 3 inches in diameter was cut into pieces about 6 inch in length. Each piece was then split into 4 sections. Each section was dipped into the test solution for about 1 minute and blotted with a paper towel to remove excess liquid. The sections were sealed in a clear plastic bag and stored at ambient conditions. The sections were observed after 1, 3, 7, and 12 weeks for the growth of stains, molds, and fungi. The aqueous test solutions were prepared by mixing the active ingredient with water.

[3] = test system: Chaetomium globsum (C. globsum), a soft rot fungus; assay: Agar plate method, fungus growth inhibition; type: cell-based
Experimental: (§1) The efficacy of aqueous solutions of amine oxides and didecyldimethyl ammonium chloride to inhibit fungus growth was evaluated by the agar plate method known in the art. […] The fungi tested were Trametes versicolor (T. versicolor), a white rot fungus; Gloeophyllum trabeum (G. trabeum), a brown rot fungus which is tolerant of arsenic and phenolic type wood preservatives; Poria placenta (P. placenta), a brown rot fungus which is tolerant to copper in wood preservatives; Lentinus lepideus (L. lepideus), a brown rot fungus which is tolerant to creosote; Coniophora puteana (C. puteana), a brown rot fungus; and Chaetomium globsum (C. globsum), a soft rot fungus.

[4] = test system: Gloeophyllum trabeum (G. trabeum), a brown rot fungus; assay: Agar plate method, fungus growth inhibition; type: cell-based
Experimental: as §1

[5] = test system: Poria placenta (P. placenta), a brown rot fungus; assay: Agar plate method, fungus growth inhibition; type: cell-based
Experimental: as §1

[6] = test system: Trametes versicolor (T. versicolor), a white rot fungus; assay: Agar plate method, fungus growth inhibition; type: cell-based; details: 50% retardation of growth
Experimental: as §1

[7] = test system: C. globosum (soft rot decay fungi); assay: Agar dilution plate method, wood rot fungi; type: cell-based; details: for MIC: Chaetomium globosum, read-out: MIC (ppm of amine oxides)
Experimental: (§2) The efficacy of the aqueous amine oxide solutions in Table 14 at various concentrations against the wood rot fungi T. versicolor (white rot fungi), G. trabeum (brown rot fungi), P. placenta (brown rot fungi), and C. globosum (soft rot decay fungi) were determined using the agar dilution plate method well known in the art. […] The percent retardation of the fungi was determined by the percentage change in the diameter of the fungi on the agar plate (i.e. Percent Retardation=((Diameter of Control)−(Diameter of Treated Fungi))/(Diameter of Control)*100%).

[8] = test system: G. trabeum (brown rot fungi); assay: Agar dilution plate method, wood rot fungi; type: cell-based; details: for MIC: Gloeophyllum trabeum, read-out: MIC (ppm of amine oxides)
Experimental: as §2

[9] = test system: P. placenta (brown rot fungi); assay: Agar dilution plate method, wood rot fungi; type: cell-based; details: for MIC: read-out: MIC (ppm of amine oxides)
Experimental: as §2

[10] = test system: T. versicolor (white rot fungi); assay: Agar dilution plate method, wood rot fungi; type: cell-based; details: for MIC: Trametes versicolor, read-out: MIC (ppm of amine oxides)
Experimental: as §2

[11] = test system: stains, molds, and fungi; assay: Wood preserving efficacy on freshly cut tulip wood (dip treatment); also: key: 4 - Clean with no visible stain or mold; 3 - Trace amount of white/black fungal growth; 2 - Black and/or white fungal growth visible on all faces and ends; 1 - Heavy fungal growth
Experimental: The wood preserving efficacy of each aqueous test solution in Table 17 below was tested on freshly cut tulip wood (also known as Tulip-Popular, Yellow Popular, and Liriodendron tulipfera L.) as follows. All percentages in Table 17 are by weight. Pieces of tulip wood cut from a 4″ debarked branch were cut into pieces. Each piece was then split into 4 sections. Each section was dipped into the test solution for about 1 minute and blotted with a paper towel to remove excess liquid. The sections were sealed in a clear plastic bag and stored at ambient conditions. The sections were observed after 1, 3, 7, and 11 weeks for the growth of stains, molds, and fungi. The aqueous test solutions were prepared by mixing the active ingredient with water.

[12] = test system: stains, molds, and fungi; assay: Wood preserving efficacy on freshly cut beech wood (dip treatment); details: beech wood pieces (Example 15); also: key: 4 - Clean with no visible stain or mold; 3 - Trace amount of white/black fungal growth; 2 - Black and/or white fungal growth visible on all faces and ends; 1 - Heavy fungal growth
Experimental: The wood preserving efficacy of each aqueous test solution in Table 18 below was tested on freshly cut beech wood (Fagus grandifolia Ehrh.) as follows. All percentages in Table 18 are by weight. A 1″ branch of a beech tree was split into two pieces. The bark was left on the pieces. Each piece was dipped into the test solution for about 1 minute and blotted with a paper towel to remove excess liquid. […] The aqueous test solutions were prepared by mixing the active ingredient with water.

[13] = C. globosum, 100% growth retardation, Table 14
[14] = G. trabeum, 100% growth retardation, Table 14
[15] = P. placenta, 100% growth retardation, Table 14
[16] = T. versicolor, 100% growth retardation, Table 14
[17] = 3 weeks, listed as 0.5% Dodecyl DMAO
[18] = 3 weeks, listed as 1.0% Dodecyl DMAO
[19] = 7 weeks, listed as 0.5% Dodecyl DMAO
[20] = 7 weeks, listed as 1.0% Dodecyl DMAO
[21] = 11 weeks, listed as 0.5% Dodecyl DMAO
[22] = 11 weeks, listed as 1.0% Dodecyl DMAO

Compound: CC(O)(P(=O)(O)O)P(=O)(O)O [1-Hydroxyethylidene-1,1-diphosphonic acid]
- Rating of treated green chestnut oak sections vs. Time ([1]; 2 weeks): 2
- Rating of treated green chestnut oak sections vs. Time ([1]; 4 weeks): 2
- Rating of treated green chestnut oak sections vs. Time ([1]; 5 weeks): 1
- Rating of treated green chestnut oak sections vs. Time ([1]; 9 weeks): 1

Compound: CCCCCCCCCCCCCC[N+](C)(C)[O-] [Tetradecyl dimethylamine oxide]
- Rating of treated white birch sections vs. Time ([2]; 1 week): 4
- Rating of treated white birch sections vs. Time ([2]; 3 weeks): 3
- Rating of treated white birch sections vs. Time ([2]; 7 weeks): 2
- Rating of treated white birch sections vs. Time ([2]; 12 weeks): 2
- IC50 [3]: 80-100 ppm
- IC50 [4]: 15-25 ppm
- IC50 [5]: 2-5 ppm
- IC50 [6]: 70 ppm
- MIC [7, 13]: > 1000 µg/mL
- MIC [8, 14]: > 1000 µg/mL
- MIC [9, 15]: > 1000 µg/mL
- MIC [10, 16]: > 1000 µg/mL

Compound: Coco-di(hydroxyethyl)amine oxide
- MIC (ppm of amine oxides) [7, 13]: >1000 ppm
- MIC (ppm of amine oxides) [8, 14]: 500 ppm
- MIC (ppm of amine oxides) [9, 15]: 500 ppm
- MIC (ppm of amine oxides) [10, 16]: 500 ppm

Compound: CCCCCCCCCCCC[N+]1([O-])CCOCC1 [Lauryl morpholine N-oxide, lauryl morpholine N-oxide]
- MIC (ppm of amine oxides) [7, 13]: >1000 ppm
- MIC (ppm of amine oxides) [8, 14]: 1000 ppm
- MIC (ppm of amine oxides) [9, 15]: 500 ppm
- MIC (ppm of amine oxides) [10, 16]: 750 ppm

Compound: CCCCCCCCCCCC[N+](C)(C)[O-] [Dodecyl dimethylamine oxide, dodecyl dimethylamine oxide]
- Rating of treated green chestnut oak sections vs. Time ([1]; 2 weeks): 3
- Rating of treated green chestnut oak sections vs. Time ([1]; 4 weeks): 2
- Rating of treated green chestnut oak sections vs. Time ([1]; 5 weeks): 2
- Rating of treated green chestnut oak sections vs. Time ([1]; 9 weeks): 1
- MIC [7]: > 1000 µg/mL
- MIC [8]: 250 µg/mL (≈ 1.09 mM)
- MIC [9]: 250 µg/mL (≈ 1.09 mM)
- MIC [10]: 250 µg/mL (≈ 1.09 mM)
- Rating of treated tulip sections vs. Time ([11]; 1 week): 4
- Rating of treated tulip sections vs. Time [11, 17]: 3
- Rating of treated tulip sections vs. Time [11, 18]: 4
- Rating of treated tulip sections vs. Time [11, 19]: 2
- Rating of treated tulip sections vs. Time [11, 20]: 4 and 3
- Rating of treated tulip sections vs. Time [11, 21]: 1
- Rating of treated tulip sections vs. Time [11, 22]: 4
- Rating of treated tulip sections vs. Time ([12]; 1 week, listed as 0.5% Dodecyl DMAO): 4
- Rating of treated tulip sections vs. Time ([12]; 1 week, listed as 1.0% Dodecyl DMAO): 4 and 3.5
- Rating of treated tulip sections vs. Time [12, 17]: 4
- Rating of treated tulip sections vs. Time [12, 18]: 2 and 3
- Rating of treated tulip sections vs. Time [12, 19]: 2.5
- Rating of treated tulip sections vs. Time [12, 20]: 2
- Rating of treated tulip sections vs. Time [12, 21]: 2.5
- Rating of treated tulip sections vs. Time [12, 22]: 2 and 1

Compound: Tallow di(hydroxyethyl)amine oxide
- MIC (ppm of amine oxides) [7, 13]: >1000 ppm
- MIC (ppm of amine oxides) [8, 14]: >1000 ppm
- MIC (ppm of amine oxides) [9, 15]: >1000 ppm
- MIC (ppm of amine oxides) [10, 16]: >1000 ppm

Second part, led by results:

- IC50 [3]: 600 ppm
- IC50 [4]: 250 ppm
- IC50 [5]: 20-50 ppm
- IC50 [6]: 800 ppm
- MIC [7, 13]: > 1000 µg/mL
- MIC [8, 14]: > 1000 µg/mL
- MIC [9, 15]: > 1000 µg/mL
- MIC [10, 16]: > 1000 µg/mL
Compound: CCCCCCCCCCCCCCCCCC[N+](C)(C)[O-] [Octadecyl dimethylamine oxide]

- IC50 [3]: 50-100 ppm
- IC50 [4]: 20-40 ppm
- IC50 [5]: 15-25 ppm
- IC50 [6]: 300-500 ppm
- MIC [7, 13]: > 1000 µg/mL
- MIC [8, 14]: 250 µg/mL (≈ 1.24 mM)
- MIC [9, 15]: 500 µg/mL (≈ 2.48 mM)
- MIC [10, 16]: 750 µg/mL (≈ 3.72 mM)
Compound: CCCCCCCCCC[N+](C)(C)[O-] [Decyldimethylamine oxide]
- Rating of treated white birch sections vs. Time ([2]; 1 week): 3
- Rating of treated white birch sections vs. Time ([2]; 3 weeks): 2
- Rating of treated white birch sections vs. Time ([2]; 7 weeks): 2
- Rating of treated white birch sections vs. Time ([2]; 12 weeks): 2

- IC50 [3]: 400 ppm
- IC50 [4]: 250-400 ppm
- IC50 [5]: 300 ppm
- IC50 [6]: 800 ppm
- MIC [7, 13]: > 1000 µg/mL
- MIC [8, 14]: 1000 µg/mL (≈ 5.77 mM)
- MIC [9, 15]: 1000 µg/mL (≈ 5.77 mM)
- MIC [10, 16]: 750 µg/mL (≈ 4.33 mM)
Compound: CCCCCCCC[N+](C)(C)[O-] [Octyldimethylamine oxide]

- MIC (ppm of amine oxides) [7, 13]: >1000 ppm
- MIC (ppm of amine oxides) [8, 14]: 1000 ppm
- MIC (ppm of amine oxides) [9, 15]: >1000 ppm
- MIC (ppm of amine oxides) [10, 16]: >1000 ppm
Compound: CCCCCCCCCCCC[N+](C)([O-])Cc1ccccc1 (centres unmarked) [Dodecyl-BMAO]
